Experimental data from paper PMC8402032, “Unsymmetric Cisplatin-Based Pt(IV) Conjugates Containing a PARP-1 Inhibitor Pharmacophore Tested on Malignant Pleural Mesothelioma Cell Lines” (Molecules, 2021).

What was measured:
[1] = test system: human MPM cell lines; experiment: Antiproliferative activity on the panel of human MPM cell lines (summary); type: cell-based
Description: (§1) Complexes 6–9 were tested on a panel of human MPM cell lines together with CDDP and SAA1, added for comparison (Table 1). The half-maximal inhibitory concentration, IC50, was determined on MSTO-211H (biphasic phenotype), REN (epithelioid), BR95 (epithelioid), and MM98 (sarcomatoid) cancer cell lines to identify the most promising Pt(IV) conjugate to be further investigated. To determine the number of viable cells, the use of the dye exclusion assay was preferred to the colorimetric assay because of the heterogeneity in the energy metabolism between the different MPM cell lines. This may justify minor differences with respect to the previously published IC50 for CDDP [40].
Cells were seeded at a density of 10 × 10^4 cells per well in 6-well plates in RPMI medium supplemented with 10% fetal bovine serum (FBS), 100 μg mL^−1 streptomycin, and 10 μg mL^−1 penicillin and incubated overnight at 37 °C in a humidified environment containing 5% CO2 to allow adherence. Cisplatin was dissolved in 0.9% w/v aqueous NaCl brought to pH = 3 with HCl (final stock concentration 1 mM). […]
(§2) Following 72 h of treatment with the diluent of the compound (Ctrl) or different doses of the Pt compounds, cells were trypsinized and stained with Trypan blue. The number of cells considered viable (unstained cells) was counted in a Bürker haemocytometer within 5 min after staining.

[2] = test system: BR95 (epithelioid) malignant pleural mesothelioma cells; experiment: Cell viability assay (Trypan blue dye exclusion), BR95; type: cell-based, human; conditions: 72 h treatment
Description: as §1
(§3) Cells were seeded at a density of 10 × 10^4 cells per well in 6-well plates in RPMI medium supplemented with 10% fetal bovine serum (FBS), 100 μg mL^−1 streptomycin, and 10 μg mL^−1 penicillin and incubated overnight at 37 °C in a humidified environment containing 5% CO2 to allow adherence. Cisplatin was dissolved in 0.9% w/v aqueous NaCl brought to pH = 3 with HCl (final stock concentration 1 mM). The Pt(IV) complexes were dissolved in DMSO (final stock concentration 5 mM); the resulting solutions were microfiltered (0.45 μm) and their Pt content was checked by ICP-MS (see Section 3.5.2). These mother solutions were diluted in complete medium to the required concentration range.
as §2

[3] = test system: MSTO-211H (biphasic phenotype) malignant pleural mesothelioma cells; experiment: Cell viability assay (Trypan blue dye exclusion), MSTO-211H; type: cell-based, human; conditions: 72 h treatment
Description: as §1, §3, §2

[4] = test system: REN (epithelioid) malignant pleural mesothelioma cells; experiment: Cell viability assay (Trypan blue dye exclusion), REN; type: cell-based, human; conditions: 72 h treatment
Description: as §1, §3, §2

[5] = Lipophilicity by RP-HPLC (log k′); type: physicochemical; conditions: RP-HPLC C18, 15 mM formic acid/CH3OH 30/70
Text: Since it has been reported that Pt(IV) complexes enter cells by passive diffusion only, with a few exceptions, the evaluation of lipophilicity is key because it is related to the ability of a molecule to passively cross cellular membranes. RP-HPLC techniques are often used to measure the lipophilicity of a compound, since the retention is due to partitioning between the C18 chains of the stationary phase (representing the cellular membrane) and the aqueous eluent (representing the water inside and outside cells). For this purpose, the retention times (tR) of the complexes were transformed as log k′, where k′ = (tR − t0)/t0) and t0 is the column dead-time (Table 1).
RP-HPLC was used to evaluate the capacity factors of the compounds as reported elsewhere. Briefly, a chromatogram for each Pt complex (0.5 mM) was run on a C18 column Phenosphere-NEXT (5-μm, 250 × 4.6 mm ID) with an eluant composition of 15 mM formic acid/CH3OH 30/70 and a flow rate of 0.5 mL min^−1. The corresponding retention time tR was used to calculate log k′, where k′ = (tR − t0)/t0. The dead time of the column t0 was the tR of KCl, added as unretained internal reference.

[6] = test system: MSTO-211H multicellular spheroids (MCS); experiment: Apoptosis in MSTO-211H multicellular spheroids; type: cell-based, human; conditions: MSTO-211H MCS, 10 μM, 72 h; spheroid morphology, PARP-1 cleavage, BIM and PUMA induction
Description: The capability of compound 6 to induce apoptosis was confirmed also when MSTO-211H cells were cultured as multicellular spheroids (MCSs). MCSs and other similar 3D cultures represent an improvement of classical 2D conditions, having a more complex architectural structure and better bio-mimicking of the in vivo microenvironment. Although they suffer many of the limitations of the 2D cultures, they are a powerful tool to narrow down the gap between the in vitro and in vivo models.
Multicellular spheroids were generated in non-adsorbent round-bottomed 96-well plates, as previously described. The 96-well plates were coated with a 1:24 dilution of polyHEMA (120 mg mL^−1) in 95% ethanol and dried at 37 °C for 24 h. Before use, plates were sterilized by UV light for 30 min. For generation of multicellular spheroids, 1 × 10^4 cells were added into each well of a polyHEMA-coated 96-well plate and placed in a 37 °C humidified incubator with 5% CO2. Every 24 h, 50% of supernatant was replaced with fresh medium.
Figure 5 Compound 6 induces apoptosis in MSTO-211H multicellular spheroids (MCS). (A) Representative microscope images of MCS treated for 72 h with diluent (Ctrl) or 10 μM 6. Scale bar = 100 μm. (B) Representative Western blot showing PARP-1 cleavage in MSTO-211H MCS treated with 6. Tubulin was used as loading control. […]

IC50 ([2]; mean ± sd): 830 ± 40 nM
IC50 ([3]; mean ± sd, read-out: IC50 MSTO-211H): 690 ± 30 nM
IC50 ([4]; mean ± sd): 1590 ± 70 nM
Log k′ [5]: 4.22
Compound: CC(=O)[O][Pt]([NH2])([NH2])([Cl])([Cl])[O]C(=O)CCNC(=O)c1cccc(NC(=O)OCC2c3ccccc3-c3ccccc32)c1 [Compound 6, (OC-6-44)-Acetato[3-(3-(fmoc-amino)-benzamido)-propanoato]-diammine-dichlorido-platinum(IV)]
ratio between the IC50 of CDDP and the IC50 of the Pt(IV) complex, all cell lines [1]: around 2
ratio IC50 (cisplatin)/IC50 (Pt(IV) complex), BR95 [2]: 2.6
ratio IC50 (cisplatin)/IC50 (Pt(IV) complex), MSTO-211H [3]: 1.6
ratio IC50 (cisplatin)/IC50 (Pt(IV) complex), REN [4]: 1.9
apoptosis in multicellular spheroids [6]: apoptotic death was evidenced
